Results reported in patent publication EP2510787A1, “Propenoates as fungicides” (Bayer CropScience AG, priority 2011, dated 2012).

Legend:
[1] = logP measurement by HPLC on reversed phase columns (EEC directive 79/831 Annex V.A8); assay type: physicochemical; conditions: pH 2.7, pH 2,7 with 0,1 % formic acid in water and acetonitrile, linear gradient 10 % to 95 % acetonitrile
[2] = tested on: Plasmopara viticola; assay: Plasmopara test (grapevines) / preventive; assay type: in vivo; conditions: preventive spray, 100 ppm of active ingredient, evaluated 6 days after the inoculation, 100 % = no disease
Description: Plasmopara test (grapevines) / preventive
To produce a suitable preparation of active compound, 1 part by weight of active compound is mixed with the stated amounts of solvent and emulsifier, and the concentrate is diluted with water to the desired concentration.
To test for preventive activity, young plants are sprayed with the preparation of active compound at the stated rate of application. After the spray coating has dried on, the plants are inoculated with an aqueous spore suspension of Plasmopara viticola and then remain for 1 day in an incubation cabinet at approximately 20°C and a relative atmospheric humidity of 100 %. The plant is subsequently placed for 4 days in a greenhouse at approximately 21°C and a relative atmospheric humidity of approximately 90 %. The plants are then misted and placed for 1 day in an incubation cabinet.
The test is evaluated 6 days after the inoculation. 0 % means an efficacy which corresponds to that of the untreated control, while an efficacy of 100 % means that no disease is observed.

SMILES	chromatographic logP [1]	Efficacy in % [2] [%]
CCOC(=O)C(C#N)=C(SC(C)C(C)C)c1cccnc1Cl (centres unmarked) [Example 1]	3.8	88
CCOC(=O)C(C#N)=C(OC(C)C(CC)CC)c1cccnc1Cl (centres unmarked) [Example 2]	3.96	
CCOC(=O)C(C#N)=C(SC(C)CC)c1cn(C)nc1C(F)F (centres unmarked) [Example 3]	3.11	
CCOC(=O)C(C#N)=C(OC(C)C(C)(C)C)c1cccnc1Cl (centres unmarked) [Example 5]	3.57	
CCOC(=O)C(C#N)=C(SC(C)C(C)C)c1ccnn1C(F)F (centres unmarked) [Example 6]	3.59	
CCOC(=O)C(C#N)=C(OC(C)C(C)C)c1cccnc1Cl (centres unmarked) [Example 7]	3.27	
CCOC(=O)C(C#N)=C(OC(C)C(C)C)c1cn(C)nc1C(F)F (centres unmarked) [Example 12]	2.98	
CCOC(=O)C(C#N)=C(OC(C)C(C)C)c1ccnn1C(F)F (centres unmarked) [Example 15]	3.25	
CCOC(=O)C(C#N)=C(SC(C)C(C)C)c1scnc1Cl (centres unmarked) [Example 22]	3.79	
CCOC(=O)C(C#N)=C(OC1(C(=O)OCC)CC1)c1cccnc1Cl [Example 24]	2.9	
CCCC(C)SC(=C(C#N)C(=O)OCC)c1cccnc1Cl (centres unmarked) [Example 25]	3.78	
CCOC(=O)C(C#N)=C(OC(C)C=C(Cl)Cl)c1cccnc1Cl (centres unmarked) [Example 26]	3.33	

Now from value to compound, other results behind:

chromatographic logP [1]	SMILES	Efficacy in % [2] [%]
3.92	CCOC(=O)C(C#N)=C(OC(C)CC(C)(C)C)c1cccnc1Cl (centres unmarked) [Example 4]	
2.44	CCOC(=O)C(C#N)=C(OC(C)COC)c1cccnc1Cl (centres unmarked) [Example 8]	
2.2	CCOC(=O)C(C#N)=C(OC(C)C1=NOCCO1)c1cccnc1Cl (centres unmarked) [Example 9]	
2.61	C#CCC(C)OC(=C(C#N)C(=O)OCC)c1cccnc1Cl (centres unmarked) [Example 10]	
2.9	CCOC(=O)C(C#N)=C(OC(C)c1ccc(Cl)nc1)c1cccnc1Cl (centres unmarked) [Example 11]	
2.71	CCOC(=O)C(C#N)=C(O[C@H](C)C(=O)OCC)c1cccnc1Cl [Example 13]	
3.37	CCOC(=O)C(C#N)=C(OC(C)C(C)C)c1scnc1Cl (centres unmarked) [Example 16]	
2.51	CCOC(=O)C(C#N)=C(SC(C)c1ccccn1)c1cccnc1Cl (centres unmarked) [Example 17]	
3.3	CCOC(=O)C(C#N)=C(SC(C)C(C)C)c1cn(C)nc1C(F)F (centres unmarked) [Example 19]	92
2.4	CCOC(=O)C(C#N)=C(O[C@@H](C)C(=O)OC)c1cccnc1Cl [Example 20]	
3.74	CCOC(=O)C(C#N)=C(OC1CCCCC1C)c1cccnc1Cl (centres unmarked) [Example 21]	
2.39	CCOC(=O)C(C#N)=C(OC(C)c1ccccn1)c1cccnc1Cl (centres unmarked) [Example 23]	
